Earlier results as cited in patent US9066956B2, “Vaginal ring comprising DHEA or DHEA sulfate and optionally a release-modulating agent of the active principle, useful to increase the ovarian reserve in women and to relieve symptoms associated with menopause” (Universidad de Chile, priority 2011, dated 2015).
Where two headings read alike, the source gives them in different places.

Assays:
[1] = tested on: infertile women with diminished ovarian reserve; conditions: versus national U.S. IVF rates 2004

Row | Compound | DHEA metabolized back to DHEA-S (by sulfatase hydroxysteroid) [%] | clinical pregnancies (women; oral DHEA 75 mg daily up to four months before IVF, control group 11%) [%] | rate of spontaneous abortions (women; oral DHEA 75 mg daily, control group 36%) [%] | increase of clinical pregnancy (women; oral DHEA versus control group) | Reduction of spontaneous abortions ([1]; first fertility center (U.S.)) [%] | Reduction of spontaneous abortions ([1]; second fertility center (Canada)) [%] | daily production of DHEA-S converted to DHEA (women) [%]
1 | C[C@]12CC[C@H](O)CC1=CC[C@@H]1[C@@H]2CC[C@]2(C)C(=O)CC[C@@H]12 [DHEA, dehydroepiandrosterone] | 13 | 28 | 20 | at least 150% | 15.0 | 15.2 | –
2 | dehydroepiandrosterone sulphate [DHEA-S] | – | – | – | – | – | – | 64
